From publication PMC9330042, “Synthesis and Biological Studies of Novel Aminophosphonates and Their Metal Carbonyl Complexes (Fe, Ru)” (International Journal of Molecular Sciences, 2022)

Tested on: V79 cell line
Experiment: MTT cytotoxicity test
Assay type: cell-based, Cricetulus griseus
Settings: V79 cells, 24 h, tested range 100–1000 µM; viability below 70% indicates cytotoxicity
Experimental: Cell viability below 70% indicates cytotoxicity.
V79 cells (Cricetulus griseus lung fibroblast cell line) (European Collection of Cell Culture) were grown in MEM (PAN-Biotech, Aidenbach, Germany) containing 2 mM glutamine (Sigma Aldrich, Darmstadt, Germany)), 1% non-essential amino acids (Biological Industries, Cromwell, U.S), 10% FBS (Biowest, Nuaillé, France), and 100 units/mL penicillin and […] (Biological Industries, Cromwell, U.S). Cells were plated and grown in an incubator at 37 °C with 5% CO2 to 80% confluence before the initiation of the assay.
V79 cells were seeded at a density of 1 × 10^4 cells per well and were incubated for 24 h. After 24 h, the medium was removed from the wells, and cells were exposed to the compound solutions over a range of concentrations or nothing but culture medium (blank control). Cells were further incubated for an additional 24 h. At the end, the medium was removed and MTT solution (0.75 mg/mL) was added. Next, plates were incubated in the dark for 2 h at 37 °C. Then, the MTT solution was removed and DMSO was added to each well. Plates were incubated for 10 min at room temperature. The absorbance at 570 nm was measured on a microplate reader. Cell viability was expressed as a percentage of the control values (blank).

| Compound | Cytotoxicity (in words) |
| --- | --- |
| CCOP(=O)(Cc1cccc(CN)c1)OCC [8b] | Non-toxic |
| CCOP(=O)(Cc1ccccc1CN)OCC [8a] | Non-toxic |
| CCOP(=O)(Cc1ccc(CN)cc1)OCC [8c] | Non-toxic |
